Activity calls are given as the source filed them. The calls are words filed in the database; no cut-off is given here.
Key:
T98G [1] = assay: Synergistic antiproliferative activity against human T98G cells assessed as reduction in cell viability at 25 uM pretreated for 2 hrs followed by TMZ addition at 94 uM and measured after 94 hrs by CellTiter-Glo luminescent cell viability assay; format: functional, cell-based; conditions: time 96.0 hrs
T98G [2] = assay: Additive antiproliferative activity against human T98G cells assessed as reduction in cell viability at 25 uM pretreated for 2 hrs followed by TMZ addition at 375 uM and measured after 94 hrs by CellTiter-Glo luminescent cell viability assay; format: functional, cell-based; conditions: time 96.0 hrs
T98G [3] = assay: Induction of DNA damage in human T98G cells assessed as increase in gammaH2AX foci number and size at 92 uM pretreated for 2 hrs followed by TMZ addition and measured after 94 hrs by DAPI staining based immunofluorescence assay; format: functional, cell-based; conditions: time 96.0 hrs
T98G [4] = assay: Additive antiproliferative activity against human T98G cells assessed as reduction in cell viability at 25 uM pretreated for 2 hrs followed by TMZ addition at 188 uM and measured after 94 hrs by CellTiter-Glo luminescent cell viability assay; format: functional, cell-based; conditions: time 96.0 hrs
T98G [5] = assay: Induction of apoptosis in human T98G cells assessed as increase in early apoptotic cells at 92 uM pretreated for 2 hrs followed by TMZ addition and measured after 96 hrs by Annexin V-FITC/PI staining based flow cytometry analysis (reference value: 2 %); format: functional; conditions: time 98 hrs
HT-29 = assay: Growth inhibition of human HT-29 cells measured after 24 hrs; format: functional
T98G [6] = assay: Antiproliferative activity against human T98G cells assessed as cell growth inhibition incubated for 96 hrs by CellTiter-Glo luminescent cell viability assay; format: functional
T98G [7] = assay: Antiproliferative activity against human T98G cells assessed as cell viability at 25 uM incubated for 96 hrs by CellTiter-Glo luminescent cell viability assay relative to control; format: functional; conditions: read-out: Activity
T98G [8] = assay: Additive antiproliferative activity against human T98G cells assessed as reduction in cell viability at GI50 pretreated for 2 hrs followed by TMZ addition at 375 uM and measured after 94 hrs by CellTiter-Glo luminescent cell viability assay; format: functional, cell-based; conditions: time 96.0 hrs
T98G [9] = assay: Additive antiproliferative activity against human T98G cells assessed as reduction in cell viability at GI50 pretreated for 2 hrs followed by TMZ addition at 188 uM and measured after 94 hrs by CellTiter-Glo luminescent cell viability assay; format: functional, cell-based
T98G [10] = assay: Additive antiproliferative activity against human T98G cells assessed as reduction in cell viability at 25 uM pretreated for 2 hrs followed by TMZ addition at 94 uM and measured after 94 hrs by CellTiter-Glo luminescent cell viability assay; format: functional, cell-based; conditions: time 96.0 hrs
Calf thymus DNA [11] = assay: Binding affinity to calf thymus DNA assessed as intercalation by measuring dissociation constant at 20 uM measured after 5 mins by UV-Vis spectrophotometric titration analysis; format: nucleic-acid assay, Bos taurus
Calf thymus DNA [12] = assay: Binding affinity to calf thymus DNA assessed as ligand-induced thermal stabilization of DNA duplex by measuring change in melting temperature at 6.25 uM by thermal denaturation analysis; format: nucleic-acid assay; conditions: Bos taurus
[13] = Thermal stability of compound in aqueous solution at 10 uM at 20 to 75 degreeC by UV-vis absorption spectroscopy; format: physicochemical; conditions: buffer
[14] = Fluorescence property of compound in THF assessed as quantum yield; format: physicochemical
[15] = Fluorescence property of compound in MeCN assessed as quantum yield; format: physicochemical
[16] = Fluorescence property of compound in MeOH assessed as quantum yield; format: physicochemical
[17] = Fluorescence property of compound in aqueous solution assessed as quantum yield; format: physicochemical; conditions: buffer
T98G [18] = assay: Antagonistic antiproliferative activity against human T98G cells assessed as reduction in cell viability at GI50 pretreated for 2 hrs followed by TMZ addition at 375 uM and measured after 94 hrs by CellTiter-Glo luminescent cell viability assay; format: functional, cell-based; conditions: time 96.0 hrs
T98G [19] = assay: Antagonistic antiproliferative activity against human T98G cells assessed as reduction in cell viability at GI50 pretreated for 2 hrs followed by TMZ addition at 94 uM and measured after 94 hrs by CellTiter-Glo luminescent cell viability assay; format: functional, cell-based; conditions: time 96.0 hrs
T98G [20] = assay: Antagonistic antiproliferative activity against human T98G cells assessed as reduction in cell viability at GI50 pretreated for 2 hrs followed by TMZ addition at 188 uM and measured after 94 hrs by CellTiter-Glo luminescent cell viability assay; format: functional, cell-based; conditions: time 96.0 hrs
T98G [21] = assay: Synergistic antiproliferative activity against human T98G cells assessed as reduction in cell viability at GI50 pretreated for 2 hrs followed by TMZ addition at 94 uM and measured after 94 hrs by CellTiter-Glo luminescent cell viability assay; format: functional, cell-based; conditions: time 96.0 hrs
T98G [22] = assay: Synergistic antiproliferative activity against human T98G cells assessed as reduction in cell viability at GI50 pretreated for 2 hrs followed by TMZ addition at 375 uM and measured after 94 hrs by CellTiter-Glo luminescent cell viability assay; format: functional, cell-based; conditions: time 96.0 hrs
T98G [23] = assay: Antagonistic antiproliferative activity against human T98G cells assessed as reduction in cell viability at 25 uM pretreated for 2 hrs followed by TMZ addition at 375 uM and measured after 94 hrs by CellTiter-Glo luminescent cell viability assay; format: functional, cell-based; conditions: time 96.0 hrs
Calf thymus DNA [24] = assay: Displacement of ethidium bromide from calf thymus DNA incubated for 30 mins by fluorescence microplate reader assay; format: nucleic-acid assay, Bos taurus
Calf thymus DNA [25] = assay: Binding affinity to calf thymus DNA assessed as ligand induced positive CD band at 50 uM by Circular dichroism spectroscopy analysis; format: nucleic-acid assay; conditions: Bos taurus
[26] = test system: Panel NCI-60 (60 carcinoma cell lines); assay: Antiproliferative activity against human Panel NCI-60 (60 carcinoma cell lines) assessed as cell growth inhibition incubated for 48 hrs; format: functional
T98G [27] = assay: Antiproliferative activity against human T98G cells assessed as cell viability at 375 uM incubated for 96 hrs by CellTiter-Glo luminescent cell viability assay relative to control; format: functional; conditions: read-out: Activity
T98G [28] = assay: Antiproliferative activity against human T98G cells assessed as cell viability at 188 uM incubated for 96 hrs by CellTiter-Glo luminescent cell viability assay relative to control; format: functional; conditions: read-out: Activity
T98G [29] = assay: Antiproliferative activity against human T98G cells assessed as cell viability at 94 uM incubated for 96 hrs by CellTiter-Glo luminescent cell viability assay relative to control; format: functional; conditions: read-out: Activity
[30] = Drug localization in cytosolic region of human T98G cells at 1.1 uM measured after 96 hrs by confocal microscope based live cell imaging analysis; format: ADME, subcellular; conditions: cytosol
T98G [31] = assay: Induction of apoptosis in human T98G cells assessed as increase in early apoptotic cells at 1.1 uM measured after 96 hrs by Annexin V-FITC/PI staining based flow cytometry analysis relative to control; format: functional
[32] = Drug localization in perinuclear region of nuclear membrane of human T98G cells assessed as appearance of z-stacked series at 1.1 uM measured after 96 hrs by confocal microscope based live cell imaging analysis; format: ADME, cell membranes
T98G [33] = assay: Induction of apoptosis in human T98G cells assessed as increase in early apoptotic cells at 1.1 uM pretreated for 2 hrs followed by TMZ addition and measured after 96 hrs by Annexin V-FITC/PI staining based flow cytometry analysis relative to control; format: functional; conditions: time 98 hrs

Row | SMILES | GI50 (T98G [6]) | Activity (T98G [9]) | Kd (Calf thymus DNA [11]) | ΔTm (Calf thymus DNA [12]) | Stability [13] | Activity [14] | Activity [15] | Activity [16] | Activity [17] | other results
1 | Nc1nc(OCc2ccccc2)c2nc[nH]c2n1 [6-O-BENZYLGUANINE] | 91.8 µM |  |  |  |  |  |  |  |  | Activity (T98G [1]): Active; Activity (T98G [2]): Active; Activity (T98G [3]): Active; Activity (T98G [4]): Active; Activity (T98G [5]): 8%; GI50 (HT-29): > 100 µM
2 | NCCCCn1cnc2c(OCc3ccccc3)nc(N)nc21 | > 25 µM |  |  |  |  |  |  |  |  | Activity (T98G [1]): Active; Activity (T98G [2]): Active; Activity (T98G [4]): Active; viability at 25 µM (T98G [7]): ≥ 70%
3 | COc1ccc2nc3cc(Cl)ccc3c(NCCCCn3cnc4c(Oc5ccccc5)nc(N)nc43)c2c1 | 0.8 µM | Active |  |  |  |  |  |  |  | Activity (T98G [8]): Active; Activity (T98G [10]): Active
4 | COc1ccc2nc3cc(Cl)ccc3c(NCCCCCCCC(=O)NCc3cccc(COc4nc(N)nc5[nH]cnc45)c3)c2c1 | 19.4 µM | Active | 14.3 µM | 0.2 °C | Stable | 0.06 | 0.04 | 0.06 | 0.01 | Activity (T98G [18]): Active; Activity (T98G [10]): Active
5 | NCc1cccc(COc2nc(N)nc3nc[nH]c23)c1 | > 25 µM |  |  |  |  |  |  |  |  | Activity (T98G [1]): Active; Activity (T98G [2]): Active; Activity (T98G [4]): Active
6 | COc1ccc2nc3cc(Cl)ccc3c(NCCCCCCCCn3cnc4c(OCc5ccccc5)nc(N)nc43)c2c1 | 14.5 µM |  |  | 0.7 °C | Stable | 0.08 | 0.09 | 0.05 | 0.05 | Activity (T98G [19]): Active; Activity (T98G [20]): Active; Activity (T98G [18]): Active
7 | COc1ccc2nc3cc(Cl)ccc3c(NCCOCCOCCn3cnc4c(OCc5ccccc5)nc(N)nc43)c2c1 | 2.1 µM | Active | 13.4 µM | -1.4 °C | Stable | 0.09 | 0.09 | 0.06 | < 0.01 | Activity (T98G [21]): Active; Activity (T98G [22]): Active
8 | COc1ccc2nc3cc(Cl)ccc3c(NCCC(=O)NCc3cccc(COc4nc(N)nc5[nH]cnc45)c3)c2c1 | 15.6 µM |  | 16.2 µM | 1.5 °C | Stable | 0.12 | 0.06 | 0.07 | 0.08 | Activity (T98G [20]): Active; Activity (T98G [8]): Active; Activity (T98G [10]): Active
9 | Nc1nc(OCc2ccccc2)c2ncn(CCCCN3C(=O)c4ccccc4C3=O)c2n1 | > 25 µM |  |  |  |  |  |  |  |  | Activity (T98G [1]): Active; Activity (T98G [23]): Active; Activity (T98G [4]): Active; viability at 25 µM (T98G [7]): ≥ 70%
10 | COc1ccc2nc3cc(Cl)ccc3c(N)c2c1 | 0.6 µM | Active | 16.1 µM | 8.5 °C |  | 0.22 | 0.22 | 0.42 | 0.36 | EC50 (Calf thymus DNA [24]): 8 µM; Activity (T98G [21]): Active; Activity (Calf thymus DNA [25]): Active; GI50 [26]: 1 µM
11 | Cn1nnc2c(C(N)=O)ncn2c1=O [TEMOZOLOMIDE] | 375 µM |  |  |  |  |  |  |  |  | viability at 375 µM (T98G [27]): 50%; viability at 188 µM (T98G [28]): 63%; viability at 94 µM (T98G [29]): 100%
12 | COc1ccc2nc3cc(Cl)ccc3c(NCCOCCOCC(=O)NCc3cccc(COc4nc(N)nc5[nH]cnc45)c3)c2c1 | 25 µM |  | 23.4 µM | -0.7 °C | Stable | 0.06 | 0.05 | 0.06 | 0.01 | Activity (T98G [20]): Active; Activity (T98G [18]): Active; Activity (T98G [10]): Active
13 | COc1ccc2nc3cc(Cl)ccc3c(NCCCCn3cnc4c(OCc5ccccc5)nc(N)nc43)c2c1 | 1.1 µM | Active | 19.1 µM | 0.6 °C | Stable | 0.09 | 0.07 | 0.06 | 0.01 | Drug uptake [30]: Active; Activity (T98G [21]): Active; Activity (T98G [22]): Active; Activity (T98G [31]): 10%; Drug uptake [32]: Active; Activity (T98G [33]): 11%
14 | COc1ccc2nc3cc(Cl)ccc3c(NCCCCn3cnc4c(=O)[nH]c(N)nc43)c2c1 | > 25 µM | Active |  |  |  |  |  |  |  | Activity (T98G [8]): Active
